The supplement of paper PMC11061612

Key:
[1] = tested on: Caov-4 (Ovarian Carcinoma); assay: Bliss excess, mean over the matrix (fraction); higher = more synergy
Method in brief: (§1)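 Bliss excess equals the observed combination effect minus the expected value EA + EB − EA·EB, where EA and EB are the effects of each agent alone. Combination Emax is the second-highest inhibition within the matrix. Inhibition was scaled from CellTiter-Glo 2.0 luminescence, with 0 set by vehicle wells and 1 by blank wells, after 72 hours of two-drug dosing of cells plated in 1536-well plates.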

[2] = tested on: NCI-H727 (Other Solid Carcinomas); assay: combination Emax (second highest fraction inhibited in the dose matrix, 72 h); higher = more inhibition; extreme values may be limits of the assay
Method in brief: as §1

[3] = tested on: SW13 (Other Solid Carcinomas); assay: as above
Method in brief: as §1

UACC-62 (Melanoma) = assay: as above
Method in brief: as §1

[4] = tested on: EoL-1-cell (Acute Myeloid Leukemia); assay: as above
Method in brief: as §1

[5] = tested on: EFM-19 (Breast Carcinoma); assay: as above
Method in brief: as §1

[6] = tested on: Hs-766T (Pancreatic Carcinoma); assay: as above
Method in brief: as §1

[7] = tested on: BT-549 (Breast Carcinoma); assay: as above
Method in brief: as §1

TK10 (Kidney Carcinoma) = assay: as above
Method in brief: as §1

[8] = tested on: NCI-H358 (Lung Adenocarcinoma); assay: as above
Method in brief: as §1

[9] = tested on: MLMA (Other Blood Carcinomas); assay: as above
Method in brief: as §1

[10] = tested on: AMO-1 (Plasma Cell Myeloma); assay: as above
Method in brief: as §1

D-263MG (Glioblastoma) = assay: as above
Method in brief: as §1

Row | Structure (SMILES) | Bliss excess [1] | combination Emax [2] | combination Emax [3] | combination Emax (UACC-62 (Melanoma)) | combination Emax [4] | combination Emax [5] | combination Emax [6] | combination Emax [7] | combination Emax (TK10 (Kidney Carcinoma)) | combination Emax [8] | combination Emax [9] | combination Emax [10] | combination Emax (D-263MG (Glioblastoma))
1 | C=CCn1c(=O)c2cnc(Nc3ccc(N4CCN(C)CC4)cc3)nc2n1-c1cccc(C(C)(C)O)n1 [AZD1775] + CCc1c2c(nc3ccc(O)cc13)-c1cc3c(c(=O)n1C2)COC(=O)[C@]3(O)CC [SN-38] (first compound max 1 µM, partner max 0.3 µM) | -0.0557 | 0.514 | 0.964 | 0.745 | 1 | 0.743 | 0.537 | 0.857 | 0.612 | 0.687 | 0.786 | 0.974 | 0.641
2 | C=CCn1c(=O)c2cnc(Nc3ccc(N4CCN(C)CC4)cc3)nc2n1-c1cccc(C(C)(C)O)n1 [AZD1775] + Nc1ccn([C@@H]2O[C@H](CO)[C@@H](O)C2(F)F)c(=O)n1 [Gemcitabine] (first compound max 1 µM, partner max 0.3 µM) | 0 | 0.392 | 0.928 | 0.73 | 1 | 0.614 | 0.42 | 0.827 | 0.456 | 0.516 | 0.815 | 0.959 | 0.622
3 | CN(CCO)CC[C@H](CSc1ccccc1)Nc1ccc(S(=O)(=O)NC(=O)c2ccc(N3CCC([C@@H](O)c4ccccc4-c4ccc(Cl)cc4)CC3)cc2)cc1S(=O)(=O)C(F)(F)F [AZD4320] + CS(=O)(=O)CCNCc1ccc(-c2ccc3ncnc(Nc4ccc(OCc5cccc(F)c5)c(Cl)c4)c3c2)o1 [Lapatinib] (first compound max 1 µM, 7x7, partner max 10 µM) | -0.0144 | 0.96 | 0.804 | 0.362 | 1 | 0.846 | 0.435 | 0.633 | 0.92 | 0.629 | 0.497 | 0.926 | 0.154
4 | Cc1c2c(nn1C)CSCc1cc(n(C)n1)CSc1cc(c3ccccc3c1)OCCCc1c(C(=O)O)n(C)c3c-2c(Cl)ccc13 [AZD5991] + CC(=O)O[C@H]1C(=O)[C@@]2(C)[C@H]([C@H](OC(=O)c3ccccc3)[C@]3(O)C[C@H](OC(=O)[C@H](O)[C@@H](NC(=O)c4ccccc4)c4ccccc4)C(C)=C1C3(C)C)[C@]1(OC(C)=O)CO[C@@H]1C[C@@H]2O [Paclitaxel] (first compound max 1 µM, 7x7, partner max 3 µM) | 0.0995 | 0.136 | 1 | 0.831 | 1 | 0.931 | 0.304 | 0.864 | 0.519 | 0.818 | 0.872 | 1 | 1
5 | Cc1c2c(nn1C)CSCc1cc(n(C)n1)CSc1cc(c3ccccc3c1)OCCCc1c(C(=O)O)n(C)c3c-2c(Cl)ccc13 [AZD5991] + CS(=O)(=O)CCNCc1ccc(-c2ccc3ncnc(Nc4ccc(OCc5cccc(F)c5)c(Cl)c4)c3c2)o1 [Lapatinib] (first compound max 1 µM, 7x7, partner max 10 µM) | 0.0835 | 0.299 | 0.973 | 0.576 | 1 | 0.364 | 0.188 | 0.412 | 0.56 | 0.478 | 0.232 | 1 | 0.458
6 | Cc1c2c(nn1C)CSCc1cc(n(C)n1)CSc1cc(c3ccccc3c1)OCCCc1c(C(=O)O)n(C)c3c-2c(Cl)ccc13 [AZD5991] + Nc1ccn([C@@H]2O[C@H](CO)[C@@H](O)C2(F)F)c(=O)n1 [Gemcitabine] (first compound max 1 µM, 7x7, partner max 0.3 µM) | -0.0312 | 0.283 | 0.981 | 0.753 | 1 | 0.573 | 0.332 | 0.395 | 0.346 | 0.381 | 0.821 | 1 | 0.894
7 | C[C@@H]1COCCN1c1cc(C2([S@](C)(=N)=O)CC2)nc(-c2ccnc3[nH]ccc23)n1 [AZD6738] + C1CC(C1)(C(=O)[O-])C(=O)[O-].N.N.[Pt+2] [Carboplatin] (first compound max 10 µM, 7x7, partner max 10 µM) | -0.0209 | 0.472 | 0.344 | 0.246 | 0.97 | 0.211 | 0.442 | 0.51 | 0.634 | 0.505 | 0.553 | 0.88 | 0.386
8 | C[C@@H]1COCCN1c1cc(C2([S@](C)(=N)=O)CC2)nc(-c2ccnc3[nH]ccc23)n1 [AZD6738] + Nc1ccn([C@@H]2O[C@H](CO)[C@@H](O)C2(F)F)c(=O)n1 [Gemcitabine] (first compound max 10 µM, 7x7, partner max 0.3 µM) | 0.0431 | 0.526 | 0.932 | 0.757 | 1 | 0.795 | 0.505 | 0.797 |  | 0.733 | 0.794 | 0.967 | 0.738
9 | C[C@@H](Nc1cc(F)cc(F)c1)c1cc(C(=O)N(C)C)cc2c(=O)cc(N3CCOCC3)oc12 [AZD8186] + C1CN(CCC1(C(=O)N[C@@H](CCO)C2=CC=C(C=C2)Cl)N)C3=NC=NC4=C3C=CN4 [AZD5363] (first compound max 10 µM, 7x7, partner max 10 µM) | -0.0338 | 0.411 | 0.251 | 0.514 | 0.816 | 0.432 | 0.336 | 0.343 | 0.454 | 0.33 | 0.623 | 0.506 | 0.284
10 | C[C@@H](Nc1cc(F)cc(F)c1)c1cc(C(=O)N(C)C)cc2c(=O)cc(N3CCOCC3)oc12 [AZD8186] + CC(=O)c1c(C)c2cnc(Nc3ccc(N4CCNCC4)cn3)nc2n(C2CCCC2)c1=O [Palbociclib] (first compound max 10 µM, 7x7, partner max 10 µM) | 0.0078 | 0.362 | 0.316 | 0.51 | 0.551 | 0.449 | 0.441 | 0.392 | 0.556 | 0.398 | 0.847 | 0.673 | 0.355
11 | C[C@@H](Oc1cc(-c2cnn(C3CCNCC3)c2)cnc1N)c1c(Cl)ccc(F)c1Cl [Crizotinib] + CC1=C(C(=CC=C1)Cl)NC(=O)C2=CN=C(S2)NC3=CC(=NC(=N3)C)N4CCN(CC4)CCO [Dasatinib] (first compound max 10 µM, 7x7, partner max 2 µM) | -0.0441 | 0.79 | 0.736 | 0.345 | 1 | 0.636 | 0.533 | 0.679 | 0.826 | 0.607 | 0.529 | 0.954 | 0.843
12 | C[C@@H](Oc1cc(-c2cnn(C3CCNCC3)c2)cnc1N)c1c(Cl)ccc(F)c1Cl [Crizotinib] + Cn1cnc2c(F)c(Nc3ccc(Br)cc3Cl)c(C(=O)NOCCO)cc21 [Selumetinib] (first compound max 10 µM, 7x7, partner max 10 µM) | -0.025 | 0.958 | 0.522 | 0.782 | 1 | 0.224 | 0.516 | 0.38 | 0.367 | 0.587 | 0.491 | 0.999 | 0.308
13 | CS(=O)(=O)CCNCc1ccc(-c2ccc3ncnc(Nc4ccc(OCc5cccc(F)c5)c(Cl)c4)c3c2)o1 [Lapatinib] + Cn1cnc2c(F)c(Nc3ccc(Br)cc3Cl)c(C(=O)NOCCO)cc21 [Selumetinib] (first compound max 10 µM, 7x7, partner max 10 µM) | 0.0493 | 0.631 | 0.687 | 0.831 | 0.832 | 0.289 | 0.582 | 0.32 | 0.605 | 0.621 | 0.316 | 0.894 | 0.259
14 | CS(=O)(=O)CCNCc1ccc(-c2ccc3ncnc(Nc4ccc(OCc5cccc(F)c5)c(Cl)c4)c3c2)o1 [Lapatinib] + NC1(c2ccc(-c3nc4ccn5c(=O)[nH]nc5c4cc3-c3ccccc3)cc2)CCC1 [MK-2206] (first compound max 10 µM, 7x7, partner max 10 µM) | -0.05 | 0.88 | 0.902 | 0.516 | 0.973 | 0.792 | 0.303 | 0.583 | 0.698 | 0.631 | 0.945 | 0.963 | 0.492
15 | O=C(c1cc(Cc2n[nH]c(=O)c3ccccc23)ccc1F)N1CCN(C(=O)C2CC2)CC1 [Olaparib] + CC1(C)CCC(CN2CCN(c3ccc(C(=O)NS(=O)(=O)c4ccc(NCC5CCOCC5)c([N+](=O)[O-])c4)c(Oc4cnc5[nH]ccc5c4)c3)CC2)=C(c2ccc(Cl)cc2)C1 [Venetoclax] (first compound max 10 µM, 7x7, partner max 1 µM) | -0.032 | 0.119 | 0.213 | 0.213 | 0.99 | 0.194 | 0.135 | 0.18 | 0.0731 | 0.133 | 0.265 | 0.333 | 0.0634
16 | O=C(c1cc(Cc2n[nH]c(=O)c3ccccc23)ccc1F)N1CCN(C(=O)C2CC2)CC1 [Olaparib] + CN(CC[C@H](CSC1=CC=CC=C1)NC2=C(C=C(C=C2)S(=O)(=O)NC(=O)C3=CC=C(C=C3)N4CCC(CC4)[C@H](C5=CC=CC=C5C6=CC=C(C=C6)Cl)O)S(=O)(=O)C(F)(F)F)CCO [AZD4320] (first compound max 10 µM, 7x7, partner max 1 µM) | -0.0392 | 0.433 | 0.184 | 0.198 | 1 | 0.428 | 0.219 | 0.217 | 0.128 | 0.182 | 0.519 | 0.424 | 0.0474
17 | O=C(c1cc(Cc2n[nH]c(=O)c3ccccc23)ccc1F)N1CCN(C(=O)C2CC2)CC1 [Olaparib] + COc1nnc2ccc(N3CCC(c4ccc(OCCN5CCN(C)C(=O)[C@H]5C)cc4)CC3)nn12 [AZD5153] (first compound max 10 µM, 7x7, partner max 1 µM) | -0.0634 | 0.288 | 0.309 | 0.491 | 0.97 | 0.367 | 0.396 | 0.462 | 0.482 | 0.295 | 0.83 | 0.882 | 0.343
